In ChEMBL document CHEMBL5230154, “Chemical probe of AHL modulators on quorum sensing in Gram-Negative Bacteria and as antiproliferative agents: A review” (Eur J Med Chem, 2021):
Blank lines part the entries; values can stand above or below the molecule they belong to.

How the values were obtained:
Escherichia coli [1] = experiment: Antagonist activity against quorum sensing system in Pseudomonas aeruginosa PAO1 assessed as inhibition of 3OC6HSL- induced GFP expression at 50 uM by fluorescence analysis; settings: filed as antagonist
[2] = molecular target: T1, Transcriptional activator protein LuxR (Vibrio fischeri (strain ATCC 700601 / ES114), UniProt P35327); experiment: Antagonist activity against LuxR mediated quorum sensing system in Vibrio fischeri ES114 expressing luxI assessed as decrease in luminescence intensity incubated for 4 to 8 hrs by bioluminescence analysis; parameters: species or system Aliivibrio fischeri
T1 sequence (P35327 whole entry): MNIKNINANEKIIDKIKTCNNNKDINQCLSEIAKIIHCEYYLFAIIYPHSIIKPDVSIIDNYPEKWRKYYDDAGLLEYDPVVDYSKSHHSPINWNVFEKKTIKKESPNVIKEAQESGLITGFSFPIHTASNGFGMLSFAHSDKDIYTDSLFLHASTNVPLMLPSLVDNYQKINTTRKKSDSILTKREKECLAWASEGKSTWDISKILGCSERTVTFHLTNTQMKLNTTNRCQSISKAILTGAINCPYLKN

Pseudomonas aeruginosa [3] = experiment: Antibiofilm activity against Pseudomonas aeruginosa PAO1 NCTC 10332 assessed as inhibition of biofilm formation incubated for 24 hrs by crystal violet staining based assay; format: functional, organism-based; settings: PAO1 NCTC 10332, 24 h
Serratia marcescens = experiment: Antibiofilm activity against Serratia marcescens ATCC 27117 assessed as inhibition of biofilm formation incubated for 24 hrs by crystal violet staining based assay; format: functional, organism-based; settings: ATCC 27117, 24 h
[4] = Cytotoxicity against human PBMC cells assessed as reduction in cell viability at 100 uM by MTT assay; format: toxicity, cell-based
[5] = Agonist activity against RhlR in Escherichia coli expressing JLD271/pJN105R2/pSC11-rhlI using CPRG as substrate by spectrophotometric assay
[6] = molecular target: T2, HTH-type quorum-sensing regulator RhlR (Pseudomonas aeruginosa (strain ATCC 15692 / PAO1 / 1C / PRS 101 / LMG12228), UniProt P54292); experiment: Agonist activity against RhlR in Pseudomonas aeruginosa PAO-JP2 expressing prhlI-LVAgfp using CPRG as substrate by spectrophotometric assay
T2 sequence (P54292 whole entry): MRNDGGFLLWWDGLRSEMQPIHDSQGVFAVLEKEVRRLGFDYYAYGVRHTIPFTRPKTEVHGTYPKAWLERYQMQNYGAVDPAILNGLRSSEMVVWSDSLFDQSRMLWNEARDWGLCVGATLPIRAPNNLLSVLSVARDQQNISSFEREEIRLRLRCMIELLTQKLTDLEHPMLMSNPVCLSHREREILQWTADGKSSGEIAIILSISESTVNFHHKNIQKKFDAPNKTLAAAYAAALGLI

Pseudomonas aeruginosa [7] = experiment: Inhibition of biofilm formation in Pseudomonas aeruginosa PAO1 incubated for 12 hrs by crystal violet staining based analysis; format: functional
[8] = Inhibition of quorum sensing system in Pseudomonas aeruginosa PAO1 assessed as decrease in lasI expression at 15 uM incubated for 12 hrs by real-time fluorescent quantitative PCR analysis
[9] = Inhibition of quorum sensing system in Pseudomonas aeruginosa PAO1 assessed as decrease in pqsR expression at 15 uM incubated for 12 hrs by real-time fluorescent quantitative PCR analysis
[10] = Inhibition of quorum sensing system in Pseudomonas aeruginosa PAO1 assessed as decrease in rhlR expression at 15 uM incubated for 12 hrs by real-time fluorescent quantitative PCR analysis
[11] = Inhibition of quorum sensing system in Pseudomonas aeruginosa PAO1 assessed as inhibition of elastase production at 15 uM incubated for 12 hrs by Congo red dye based spectrophotometric assay
[12] = Inhibition of quorum sensing system in Pseudomonas aeruginosa PAO1 assessed as inhibition of pyocyanin production at 15 uM incubated for 12 hrs by spectrophotometric assay
[13] = Inhibition of quorum sensing system in Pseudomonas aeruginosa PAO1 assessed as decrease in lasA expression at 15 uM incubated for 12 hrs by real-time fluorescent quantitative PCR analysis
[14] = Inhibition of quorum sensing system in Pseudomonas aeruginosa PAO1 assessed as inhibition of rhamnolipid production at 15 uM incubated for 12 hrs by spectrophotometric assay
Pseudomonas aeruginosa [15] = experiment: Antagonist activity against quorum sensing system in Pseudomonas aeruginosa PAO-JP2 (plasI-LVAgfp) assessed as inhibition of 3-oxo-C12 HSL induced GFP expression at 100 uM incubated for 6 hrs in presence of 1 uM of 3-oxo-C12 HSL by fluorescence analysis
[16] = Inhibition of quorum sensing system in Pseudomonas aeruginosa MW1 assessed as inhibition of LasR expression incubated for 8 to 12 hrs in presence of 3-oxo-C12 HSL by fluorescence analysis
[17] = Inhibition of quorum sensing system in Pseudomonas aeruginosa MW1 assessed as inhibition of LasR expression at 33 uM incubated for 8 to 12 hrs in presence of 3-oxo-C12 HSL by fluorescence analysis; settings: time 8-12 hrs
[18] = Inhibition of quorum sensing system in Pseudomonas aeruginosa PA14 assessed as inhibition of pyocyanin production incubated for 17 hrs by spectrophotometric assay
[19] = Antagonist activity against quorum sensing system in Pseudomonas aeruginosa PAO1 transfected with lasB-lacZ reporter gene assessed as inhibition of beta-galactosidase activity incubated for 24 hrs by elastin-Congo red assay
[20] = Inhibition of quorum sensing system in Pseudomonas aeruginosa PAO1 assessed as inhibition of pyocyanin production at 32 uM incubated for 17 hrs by spectrophotometric analysis
[21] = Inhibition of quorum sensing system in Pseudomonas aeruginosa PAO1 assessed as inhibition of pyocyanin production at 250 uM incubated for 17 hrs by spectrophotometric analysis
Pseudomonas aeruginosa [22] = experiment: Inhibition of quorum sensing system in Pseudomonas aeruginosa MH602 expressing PlasB::gfp assessed as inhibition of GFP fluorescence expression at 250 uM incubated for 15 hrs by fluorescence microplate reader analysis
[23] = Inhibition of quorum sensing system in Pseudomonas aeruginosa PA14 assessed as inhibition of pyocyanin production by UV-vis spectrophotometric assay
Escherichia coli [24] = experiment: Inhibition of Escherichia coli MT102 harbouring pJBA132 expressing Gfp assessed as inhibition of GFP fluorescence expression at 62.5 uM incubated for 15 hrs by fluorescence microplate reader analysis

Structure (SMILES): O=C(Cc1ccc(I)cc1)N[C@H]1CCOC1=O
- IC50 [2]: 0.6 µM

Structure (SMILES): O=C(CCCNc1ccc(F)cc1)NC1CCOC1=O (stereo unspecified)
- Activity [4]: 49.2%

Structure (SMILES): CCCCC(=O)N[C@H]1CCSC1=O
- EC50 [5]: 4.87 µM
- EC50 [6]: 3.82 µM

Structure (SMILES): O=C(CCCNc1ccc(Cl)cc1)NC1CCOC1=O (stereo unspecified)
- Activity [4]: 57.4%

Structure (SMILES): O=C(Cc1ccccc1)N[C@H]1CCOC1=O
- IC50 [2]: 0.6 µM

Structure (SMILES): CCOC(=O)/C=C1\CC(NCc2cccs2)C(=O)N1Cc1cccs1 (stereo unspecified)
- inhibition (Escherichia coli [1]): 53.5%

Structure (SMILES): CCCCCCCCCCCCn1nnc(CC(=O)O)n1
- IC50 [16]: 30 µM
- inhibition [17]: 50%

Structure (SMILES): O=C(CCCOc1cccc(Cl)c1)NC1CCSC1=O (stereo unspecified)
- IC50 [18]: 9 µM

Structure (SMILES): O=C1C(Cl)=C(Cl)CN1c1cccc(O)c1
- inhibition [20]: 80%
- inhibition [21]: 90%
- inhibition (Pseudomonas aeruginosa [22]): 78%

Structure (SMILES): NCCCCCCCCCCCCNc1ccnc2cc(Cl)ccc12
- IC50 (Pseudomonas aeruginosa [3]): 69 µM
- IC50 [23]: 2.5 µM
- IC50 (Serratia marcescens): 69 µM

Structure (SMILES): Nc1cccc(N2CC(Cl)=C(Cl)C2=O)c1
- inhibition [20]: 80%
- inhibition [21]: 90%
- inhibition (Pseudomonas aeruginosa [22]): 80.4%

Structure (SMILES): C#CCNC(=O)C(=O)c1ccccc1NC(=O)CCl
- inhibition (Escherichia coli [24]): 56.5%

Structure (SMILES): COc1ccccc1NC(=O)NC(=O)CSC(=S)N[C@H]1CCOC1=O
- inhibition (INH) (Pseudomonas aeruginosa [7]): 40.3%
- inhibition [8]: 39.2%
- inhibition [9]: 57.5%
- inhibition [11]: 18.4%
- inhibition [12]: 30.3%
- inhibition [14]: 16.7%

Second part, led by results:

- inhibition (Escherichia coli [1]): 47.9%
Structure (SMILES): CCOC(=O)/C=C1\CC(NCc2ccc(C)cc2)C(=O)N1Cc1ccc(C)cc1 (stereo unspecified)

- IC50 (Pseudomonas aeruginosa [3]): 63 µM
- IC50 (Serratia marcescens): 63 µM
Structure (SMILES): NCCCCCCCCCCCCNc1ccnc2cc(C(F)(F)F)ccc12

- inhibition [8]: 55.1%
- inhibition [9]: 72.5%
- inhibition [10]: 48.4%
- inhibition [11]: 13.7%
- inhibition [12]: 34.5%
- inhibition [13]: 64.1%
- inhibition [14]: 28.1%
Structure (SMILES): Cc1cccc(NC(=O)NC(=O)CSC(=S)N[C@H]2CCOC2=O)c1
- inhibition (INH) (Pseudomonas aeruginosa [7]): 36.2%

- inhibition (Pseudomonas aeruginosa [15]): 30%
Structure (SMILES): CCCCCCCCCCCC(=O)NC1CCCCC1=O (stereo unspecified)

- inhibition (Escherichia coli [1]): 57.9%
Structure (SMILES): CCOC(=O)/C=C1\CC(NCc2ccccc2)C(=O)N1Cc1ccccc1 (stereo unspecified)

- IC50 [19]: 250 µM
Structure (SMILES): CCCCCCCC(=O)NC1CCCC1

- inhibition (Pseudomonas aeruginosa [15]; filed as antagonist): 70%
Structure (SMILES): CCCCCCCCCCCC(=O)NC1CCC[C@@H]1O (stereo partly specified)
